{"source": "patent US20020169111A1", "about": "“Reversal of multidrug resistance in human colon carcinoma cells” (American Cyanamid Comany, priority 1998, published 2002)", "format_in_all_cases": "cell-based, human", "key": {"MCF 7/AdVp cells": {"tested_on": "MCF 7/AdVp cells", "conditions": "MCF 7/AdVp; 5 μM FTC with Paclitaxel", "method": "Cell survival was estimated after 3 days using the SRB assay. Cell survival was determined by the SRB assay and EC50 values were determined from toxicity curves. The dose modifying factor (DMF) is the ratio of EC50 values obtained in the absence and presence of reversal agent. Maximum DMF values (shown in parentheses) is the ratio of EC50 values of resistant and sensitive cells in the absence of the reversal agent. This value is obtained when resistance is reversed completely, and is the equivalent of the relative resistance.\nIn order to determine the utility of FTC as a reversal agent in other multidrug resistant cell lines, FTC was tested in two breast cancer cell lines which show a multidrug resistant phenotype with no overexpression of P-gp or MRP."}, "S1-M1-3.2 cells": {"tested_on": "S1-M1-3.2 cells", "experiment": "Drug accumulation analysis with [14C] drug", "conditions": "S1-M1-3.2 cells", "method": "(§1) To determine the mechanism of resistance, drug resistant and sensitive cells were incubated with radioactive analogues of antitumor agents and cell-associated radioactivity was measured by scintillation counting. Alternatively, surrogates of chemotherapeutic drugs may be used. The surrogate has no antitumor activity itself but interacts with the cancer cell proteins such as P-gp or MRP in a similar manner as an anticancer drug. The surrogate chemotherapeutic drug would have a property such as fluorescence which is useful for determining the drug resistance mechanisms such as efflux.\n(§2) Cells were plated in 60 mm dishes (1×10^6 cells per dish) or in 24 well clusters (2 ×10^5 cells per well) and allowed to grow for 1-2 days. […] Drugs used were [^14C]-mitoxantrone (Amersham, 1 or 5 μM; specific activity 66 mCi/mmol) or [^14C]-doxorubicin (Amersham, 0.5 or 3 μM; specific activity 50-62 mCi/mmol ). […] Unbound drug was removed by washing twice in ice-cold phosphate buffered saline (PBS), cells were solubilized in 2 N NaOH at 37° C. for 1-2 hours, and analyzed by scintillation counting. Results were normalized to cell protein content measured by a Lowry assay.\n(§3) The cells were then washed, solubilized, and counted in a scintillation counter. Values are mean disintegration per minute per μg protein of triplicate determinations ± standard deviation."}, "S1 cells": {"tested_on": "S1 cells", "experiment": "Drug accumulation analysis with [14C] drug", "conditions": "90 minutes", "method": "as §1, §2, §3"}, "S1-B1-20 cells": {"tested_on": "S1-B1-20 cells", "experiment": "Drug accumulation analysis with [14C] drug", "conditions": "90 minutes", "method": "as §1, §2, §3"}, "MCF-7/BCRP cells": {"tested_on": "MCF-7/BCRP cells", "experiment": "Dose modifying factor of FTC in BCRP-transfected cells", "conditions": "MCF-7/BCRP", "method": "Cell survival was estimated after 3 days using the SRB assay, and EC50 values were determined from cytotoxicity curves."}}, "data": [{"smiles": "COc1ccc2c3c([nH]c2c1)[C@H](C=C(C)C)N1C(=O)[C@@H]2CCCN2C(=O)[C@@H]1C3", "note": "[Fumitremorgin C]", "values": [{"measurement": "Dose modifying factor", "setting": "MCF 7/AdVp cells", "result": "0.7 (10.7)"}, {"measurement": "increase of amount of doxorubicin retained", "setting": "S1-M1-3.2 cells; 1 μM FTC", "result": 3.4, "unit": "fold"}, {"measurement": "increase of amount of mitoxantrone retained", "setting": "S1-M1-3.2 cells; 1 μM FTC", "result": 2, "unit": "fold"}, {"measurement": "Doxorubicin Drug Accumulation with 1 μM FTC", "setting": "S1-M1-3.2 cells; [14C] doxorubicin, 90 minutes", "result": "65 ± 17", "unit": "DPM/μg protein"}, {"measurement": "Mitoxantrone Drug Accumulation with 1 μM FTC", "setting": "S1-M1-3.2 cells; [14C] mitoxantrone, 90 minutes", "result": "2220 ± 147", "unit": "DPM/μg protein"}, {"measurement": "Doxorubicin Drug Accumulation with 1 μM FTC", "setting": "S1 cells; [14C] doxorubicin", "result": "111 ± 15", "unit": "DPM/μg protein"}, {"measurement": "Mitoxantrone Drug Accumulation with 1 μM FTC", "setting": "S1 cells; [14C] mitoxantrone", "result": "2246 ± 233", "unit": "DPM/μg protein"}, {"measurement": "Doxorubicin Drug Accumulation with 1 μM FTC", "setting": "S1-B1-20 cells; [14C] doxorubicin", "result": "26 ± 1", "unit": "DPM/μg protein"}, {"measurement": "Mitoxantrone Drug Accumulation with 1 μM FTC", "setting": "S1-B1-20 cells; [14C] mitoxantrone", "result": "1189 ± 53", "unit": "DPM/μg protein"}, {"measurement": "Dose modifying factor (5 μM FTC)", "setting": "MCF-7/BCRP cells; with Doxorubicin", "result": 6.6}, {"measurement": "Dose modifying factor (5 μM FTC)", "setting": "MCF-7/BCRP cells; with Mitoxantrone", "result": 29.4}, {"measurement": "Dose modifying factor (5 μM FTC)", "setting": "MCF-7/BCRP cells; with Paclitaxel", "result": 1.1}, {"measurement": "Dose modifying factor (5 μM FTC)", "setting": "MCF-7/BCRP cells; with Topotecan", "result": 6.5}]}]}
